Measurements taken from patent publication EP4741392A1, “1H-PYRAZOLO[4,3-C]PYRIDINE COMPOUND, AND COMPOSITION THEREOF AND USE THEREOF” (Shenzhen TargetRx Co., Ltd., priority 2023, dated 2025).

Tests used:
Experiment in all cases: Kinase activity inhibition assay (HTRF TK Kit), selectivity
Assay type in all cases: biochemical
[1] = molecular target: T1, EGFR (Homo sapiens, UniProt P00533)
T1 construct: purchased Carna 08-115
How it was run: (§1)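 Compounds are serially diluted and incubated with kinase, substrate and ATP at room temperature, the plate having been prepared on ice. Detection reagents are then added for 1 h, and the 665/620 nm fluorescence ratio is converted to percent inhibition for curve fitting.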

[2] = molecular target: T2, ITK (Homo sapiens, UniProt Q08881)
T2 construct: purchased Carna 08-181
T2 sequence (Q08881 1-620): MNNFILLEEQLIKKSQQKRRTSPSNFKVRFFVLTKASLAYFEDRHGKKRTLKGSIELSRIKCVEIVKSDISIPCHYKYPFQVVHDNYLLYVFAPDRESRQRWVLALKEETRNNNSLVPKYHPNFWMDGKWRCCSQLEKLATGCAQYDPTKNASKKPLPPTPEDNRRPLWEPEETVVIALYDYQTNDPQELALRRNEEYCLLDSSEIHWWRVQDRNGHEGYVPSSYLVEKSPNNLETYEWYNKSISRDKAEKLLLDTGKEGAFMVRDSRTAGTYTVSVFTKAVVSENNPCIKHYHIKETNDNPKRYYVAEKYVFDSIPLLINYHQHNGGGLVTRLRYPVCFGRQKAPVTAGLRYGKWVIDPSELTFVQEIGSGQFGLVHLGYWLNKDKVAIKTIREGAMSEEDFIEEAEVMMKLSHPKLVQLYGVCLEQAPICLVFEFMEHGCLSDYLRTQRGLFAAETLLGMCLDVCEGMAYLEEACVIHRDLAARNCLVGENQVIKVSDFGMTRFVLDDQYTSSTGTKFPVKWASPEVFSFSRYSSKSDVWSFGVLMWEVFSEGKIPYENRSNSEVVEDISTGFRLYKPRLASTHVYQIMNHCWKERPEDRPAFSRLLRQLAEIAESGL
How it was run: as §1

[3] = molecular target: T3, TEC (Homo sapiens, UniProt P42680)
T3 construct: purchased Carna 08-182
T3 sequence (P42680 1-631): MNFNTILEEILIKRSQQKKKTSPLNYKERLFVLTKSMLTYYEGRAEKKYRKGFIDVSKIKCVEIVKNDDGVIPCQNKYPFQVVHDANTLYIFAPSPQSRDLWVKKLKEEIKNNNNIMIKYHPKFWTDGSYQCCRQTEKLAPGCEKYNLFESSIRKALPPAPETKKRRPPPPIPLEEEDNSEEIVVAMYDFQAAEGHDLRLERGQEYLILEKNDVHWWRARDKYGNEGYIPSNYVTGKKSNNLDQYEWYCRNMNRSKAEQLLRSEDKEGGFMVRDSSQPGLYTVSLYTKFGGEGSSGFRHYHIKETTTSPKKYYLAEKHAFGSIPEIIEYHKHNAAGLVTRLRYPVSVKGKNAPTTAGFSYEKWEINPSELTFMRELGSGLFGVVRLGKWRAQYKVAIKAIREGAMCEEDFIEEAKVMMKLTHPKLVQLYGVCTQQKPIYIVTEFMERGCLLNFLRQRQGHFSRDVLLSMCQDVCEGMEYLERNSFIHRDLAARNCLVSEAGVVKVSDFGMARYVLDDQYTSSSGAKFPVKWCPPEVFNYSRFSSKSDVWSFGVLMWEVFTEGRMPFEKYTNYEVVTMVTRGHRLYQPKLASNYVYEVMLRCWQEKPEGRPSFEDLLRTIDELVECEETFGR
How it was run: as §1

T1 sequence (P00533 669-1210 limits assumed): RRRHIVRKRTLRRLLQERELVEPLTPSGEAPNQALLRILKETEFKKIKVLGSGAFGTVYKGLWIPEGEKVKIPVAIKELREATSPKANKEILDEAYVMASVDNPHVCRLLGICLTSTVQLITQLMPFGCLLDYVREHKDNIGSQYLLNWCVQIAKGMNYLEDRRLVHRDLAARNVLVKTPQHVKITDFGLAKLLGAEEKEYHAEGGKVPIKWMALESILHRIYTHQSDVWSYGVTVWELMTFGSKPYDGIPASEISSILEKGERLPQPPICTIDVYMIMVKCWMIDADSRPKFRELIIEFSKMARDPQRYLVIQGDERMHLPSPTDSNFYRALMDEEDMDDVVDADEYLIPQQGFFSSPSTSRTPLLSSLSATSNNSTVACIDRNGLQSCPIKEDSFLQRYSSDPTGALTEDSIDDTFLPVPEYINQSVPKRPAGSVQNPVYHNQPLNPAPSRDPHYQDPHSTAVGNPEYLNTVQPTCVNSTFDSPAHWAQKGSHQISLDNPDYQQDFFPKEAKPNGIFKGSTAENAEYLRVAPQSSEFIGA

Q: How did the IC50 [1] turn out when `COc1ccc(F)cc1C(=O)NCc1ccc(-c2ncc(-c3ccn(CC(=O)N(C)C)n3)c3[nH]nc(N)c23)cc1` [Example 25, N-(4-(3-amino-7-(1-(2-(dimethylamino)-2-oxoethyl)-1H-pyrazol-3-yl)-1H-pyrazolo[4,3-c]pyridin-4-yl)benzyl)-5-fluoro-2-methoxybenzamide] was run?
A: 50 to 500 nM

Q: And the IC50 [2]?
A: > 500 nM

Q: What about the IC50 [3] of the same compound?
A: 50 to 500 nM

Q: How did the IC50 [1] turn out when `COc1ccc(F)cc1C(=O)NCc1ccc(-c2ncc(-c3nc4ccccc4s3)c3[nH]nc(N)c23)cc1` [Example 99, N-(4-(3-amino-7-(benzo[d]thiazol-2-yl)-1H-pyrazolo[4,3-c]pyridin-4-yl)benzyl)-5-fluoro-2-methoxybenzamide] was run?
A: 50 to 500 nM

Q: What about the IC50 [2] of the same compound?
A: > 500 nM

Q: And the IC50 [3]?
A: 5 to 50 nM

Q: How did the IC50 [1] turn out when `COc1ccc(F)cc1C(=O)NCc1ccc(-c2ncc(-c3ccc(C(F)F)cn3)c3[nH]nc(N)c23)cc1` [Example 48, N-(4-(3-amino-7-(5-(difluoromethyl)pyridin-2-yl)-1H-pyrazolo[4,3-c]pyridin-4-yl)benzyl)-5-fluoro-2-methoxybenzamide] was run?
A: 50 to 500 nM

Q: And the IC50 [2]?
A: 50 to 500 nM

Q: And the IC50 [3]?
A: 5 to 50 nM

Q: Which results are given for `COc1ccc(F)cc1C(=O)NCc1ccc(-c2ncc(-c3ccc(F)cn3)c3[nH]nc(N)c23)cc1` [Example 21, N-(4-(3-amino-7-(5-fluoropyridin-2-yl)-1H-pyrazolo[4,3-c]pyridin-4-yl)benzyl)-5-fluoro-2-methoxybenzamide]?
A: IC50 [1]: > 500 nM; IC50 [2]: > 500 nM; IC50 [3]: 50 to 500 nM

Q: How did the IC50 [1] turn out when `COCCOc1ccc(-c2cnc(-c3ccc(CNC(=O)c4cc(F)ccc4OC)cc3)c3c(N)n[nH]c23)nc1` [Example 59, N-(4-(3-amino-7-(5-(2-methoxyethoxy)pyridin-2-yl)-1H-pyrazolo[4,3-c]pyridin-4-yl)benzyl)-5-fluoro-2-methoxybenzamide] was run?
A: 5 to 50 nM

Q: And the IC50 [2]?
A: 50 to 500 nM

Q: And the IC50 [3]?
A: 5 to 50 nM

Q: `COc1ccc(F)cc1C(=O)NCc1ccc(-c2ncc(-c3cn(C)cn3)c3[nH]nc(N)c23)cc1` [Example 30, N-(4-(3-amino-7-(1-methyl-1H-imidazol-4-yl)-1H-pyrazolo[4,3-c]pyridin-4-yl)benzyl)-5-fluoro-2-methoxybenzamide] was tested. Which IC50 [1] did it give?
A: 50 to 500 nM

Q: What about the IC50 [2] of the same compound?
A: > 500 nM

Q: And the IC50 [3]?
A: 50 to 500 nM

Q: Which IC50 [1] does the source give for `CCN1CCc2nc(-c3cnc(-c4ccc(CNC(=O)c5cc(F)ccc5OC)cc4)c4c(N)n[nH]c34)sc2C1` [Example 101, N-(4-(3-amino-7-(5-ethyl-4,5,6,7-tetrahydrothiazolo[5,4-c]pyridin-2-yl)-1H-pyrazolo[4,3-c]pyridin-4-yl)benzyl)-5-fluoro-2-methoxybenzamide] here?
A: 50 to 500 nM

Q: And the IC50 [2]?
A: 50 to 500 nM

Q: What about the IC50 [3] of the same compound?
A: 5 to 50 nM

Q: What does the source list for `C=CC(=O)N1CCCC(c2cc3[nH]nc(N)c3c(-c3ccc(CNC(=O)c4cc(F)ccc4OC)cc3)n2)C1` (stereo not drawn) [Example 96, N-(4-(6-(1-acryloylpiperidin-3-yl)-3-amino-1H-pyrazolo[4,3-c]pyridin-4-yl)benzyl)-5-fluoro-2-methoxybenzamide]?
A: IC50 [1]: 50 to 500 nM; IC50 [2]: > 500 nM; IC50 [3]: 5 to 50 nM

Q: What does the source list for `CCN1CCn2nc(-c3cnc(-c4ccc(CNC(=O)c5cc(F)ccc5OC)cc4)c4c(N)n[nH]c34)cc2C1` [Example 72, N-(4-(3-amino-7-(5-ethyl-4,5,6,7-tetrahydropyrazolo[1,5-a]pyrazin-2-yl)-1H-pyrazolo[4,3-c]pyridin-4-yl)benzyl)-5-fluoro-2-methoxybenzamide]?
A: IC50 [1]: 5 to 50 nM; IC50 [2]: 50 to 500 nM; IC50 [3]: 5 to 50 nM

Q: `COc1ccc(F)cc1C(=O)NCc1ccc(-c2nc(C(C)C(F)(F)F)c(-c3cc(C)[nH]n3)c3[nH]nc(N)c23)cc1` (stereo not drawn) [Example 9, N-(4-(3-amino-7-(5-methyl-1H-pyrazol-3-yl)-6-(1,1,1-trifluoropropan-2-yl)-1H-pyrazolo[4,3-c]pyridin-4-yl)benzyl)-5-fluoro-2-methoxybenzamide] was tested. Which IC50 [1] did it give?
A: 50 to 500 nM

Q: And the IC50 [2]?
A: > 500 nM

Q: What about the IC50 [3] of the same compound?
A: 50 to 500 nM

Q: For `COc1ccc(F)cc1C(=O)NCc1ccc(-c2ncc(-c3ccc(C)cn3)c3[nH]nc(N)c23)cc1` [Example 37, N-(4-(3-amino-7-(5-methylpyridin-2-yl)-1H-pyrazolo[4,3-c]pyridin-4-yl)benzyl)-5-fluoro-2-methoxybenzamide], which IC50 [1] is on record?
A: 50 to 500 nM

Q: What about the IC50 [2] of the same compound?
A: > 500 nM

Q: What about the IC50 [3] of the same compound?
A: 5 to 50 nM

Q: Which results are given for `COc1ccc(F)cc1C(=O)NCc1ccc(-c2ncc(-c3ccc(Cl)cn3)c3[nH]nc(N)c23)cc1` [Example 38, N-(4-(3-amino-7-(5-chloropyridin-2-yl)-1H-pyrazolo[4,3-c]pyridin-4-yl)benzyl)-5-fluoro-2-methoxybenzamide]?
A: IC50 [1]: 50 to 500 nM; IC50 [2]: > 500 nM; IC50 [3]: 5 to 50 nM

Q: With `COc1ccc(F)cc1C(=O)NCc1ccc(-c2ncc(-c3cnn(C)c3)c3[nH]nc(N)c23)cc1` [Example 22, N-(4-(3-amino-7-(1-methyl-1H-pyrazol-4-yl)-1H-pyrazolo[4,3-c]pyridin-4-yl)benzyl)-5-fluoro-2-oxybenzamide] as the compound, how does the IC50 [1] read?
A: > 500 nM

Q: What about the IC50 [2] of the same compound?
A: > 500 nM

Q: And the IC50 [3]?
A: > 500 nM

Q: How did the IC50 [1] turn out when `COc1ccc(F)cc1C(=O)NCc1ccc(-c2ncc(-c3nc4ccccn4n3)c3[nH]nc(N)c23)cc1` [Example 58, N-(4-(7-([1,2,4]triazolo[1,5-a]pyridin-2-yl)-3-amino-1H-pyrazolo[4,3-c]pyridin-4-yl)benzyl)-5-fluoro-2-methoxybenzamide] was run?
A: 50 to 500 nM

Q: And the IC50 [2]?
A: > 500 nM

Q: What about the IC50 [3] of the same compound?
A: 5 to 50 nM
